{"source": "paper PMC3931418", "about": "(Nature, 2014)", "key": {"δ-OR [1]": {"system": "δ-OR", "conditions": "cited from earlier work"}, "[2]": {"system": "δ-OR sodium-anchored residue mutants", "experiment": "cAMP assay", "format": "cell-based, human"}, "[3]": {"system": "δ-OR sodium-anchored residue mutants", "experiment": "δ-OR β-arrestin recruitment assay", "conditions": "sodium-anchored residue mutants compared to WT"}, "WT δ-OR": {"target": "WT δ-OR (Homo sapiens, UniProt P41143)", "sequence (P41143 whole entry)": "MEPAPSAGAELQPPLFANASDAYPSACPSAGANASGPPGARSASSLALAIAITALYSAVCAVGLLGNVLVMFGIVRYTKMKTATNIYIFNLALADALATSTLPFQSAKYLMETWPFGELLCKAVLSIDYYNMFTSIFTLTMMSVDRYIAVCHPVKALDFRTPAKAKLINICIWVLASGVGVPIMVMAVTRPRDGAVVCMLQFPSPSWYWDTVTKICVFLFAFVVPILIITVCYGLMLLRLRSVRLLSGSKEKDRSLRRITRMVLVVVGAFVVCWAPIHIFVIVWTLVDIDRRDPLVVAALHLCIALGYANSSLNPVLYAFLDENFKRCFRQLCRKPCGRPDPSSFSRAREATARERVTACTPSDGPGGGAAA", "experiment": "δ-OR β-arrestin recruitment assay"}, "δ-OR [4]": {"target": "δ-OR (Homo sapiens, UniProt P41143)", "sequence (P41143 whole entry)": "as above", "experiment": "cAMP assay", "format": "cell-based", "conditions": "receptors transfected with 15 µg DNA"}, "δ-OR WT (HEK293)": {"target": "δ-OR WT (HEK293) (Homo sapiens, UniProt P41143)", "sequence (P41143 whole entry)": "as above", "format": "binding"}, "δ-OR D95N (HEK293)": {"target": "δ-OR D95N (HEK293) (Homo sapiens, UniProt P41143, D95N)", "sequence (P41143 whole entry D95N)": "as the sequence (P41143 whole entry) above, with D95N counted along it"}, "δ-OR D95A (HEK293)": {"target": "δ-OR D95A (HEK293) (Homo sapiens, UniProt P41143, D95A)", "sequence (P41143 whole entry D95A)": "as the sequence (P41143 whole entry) above, with D95A counted along it"}, "δ-OR N131A (HEK293)": {"target": "δ-OR N131A (HEK293) (Homo sapiens, UniProt P41143, N131A)", "sequence (P41143 whole entry N131A)": "as the sequence (P41143 whole entry) above, with N131A counted along it", "format": "binding"}, "[5]": {"conditions": "cooperativity of sodium with DADLE"}}, "data": [{"compound": "C=CCN1C[C@H](C)N([C@H](c2ccc(C(=O)N(CC)CC)cc2)c2cccc(O)c2)C[C@H]1C", "values": [{"measurement": "effect of sodium ions on binding to the receptor", "setting": "δ-OR [1]", "value": "minimally affected"}, {"measurement": "G-protein signaling", "setting": "[2]; sodium-anchored residue mutants compared to WT", "value": "low to moderate reduction"}, {"measurement": "β-arrestin signaling", "setting": "[3]", "value": "low to moderate reduction"}]}, {"compound": "O=C1/C(=C/c2ccccc2)C[C@@]2(O)[C@H]3Cc4ccc(O)c5c4[C@@]2(CCN3CC2CC2)[C@H]1O5", "note": "[BNTX]", "values": [{"measurement": "agonist activity at the β-arrestin pathway", "setting": "WT δ-OR", "value": "no apparent agonist activity"}]}, {"compound": "Oc1ccc2c3c1O[C@H]1c4oc5ccccc5c4C[C@@]4(O)[C@@H](C2)N(CC2CC2)CC[C@]314", "note": "[naltriben]", "values": [{"measurement": "agonist activity at the β-arrestin pathway", "setting": "WT δ-OR", "value": "no apparent agonist activity"}]}, {"compound": "Oc1ccc2c3c1O[C@H]1c4[nH]c5ccccc5c4C[C@@]4(O)[C@@H](C2)N(CC2CC2)CC[C@]314", "note": "[naltrindole]", "values": [{"measurement": "activity at Gαi signaling", "setting": "δ-OR [4]", "value": "weak partial agonist activity"}, {"measurement": "agonist activity at the β-arrestin pathway", "setting": "WT δ-OR", "value": "no apparent agonist activity"}]}, {"compound": "[Na+]", "note": "[sodium]", "values": [{"measurement": "Hill Coefficient", "setting": "δ-OR WT (HEK293)", "value": "0.56 ± 0.16"}, {"measurement": "Na+ pKB ± SEM", "setting": "δ-OR WT (HEK293); allosteric model, orthosteric ligand DADLE", "value": "1.88 ± 0.10"}, {"measurement": "pα ± SEM", "setting": "δ-OR WT (HEK293); [5]", "value": "1.93 ± 0.34"}, {"measurement": "α", "setting": "δ-OR WT (HEK293); [5]", "value": 0.012}, {"measurement": "Kb", "setting": "δ-OR WT (HEK293); read-out: Na+ KB, allosteric model, orthosteric ligand DADLE", "value": 13.3, "unit": "mM"}, {"measurement": "Hill Coefficient", "setting": "δ-OR D95N (HEK293)", "value": "NAE"}, {"measurement": "Na+ KB", "setting": "δ-OR D95N (HEK293)", "value": "NAE"}, {"measurement": "Na+ pKB ± SEM", "setting": "δ-OR D95N (HEK293)", "value": "NAE"}, {"measurement": "pα ± SEM", "setting": "δ-OR D95N (HEK293)", "value": "NAE"}, {"measurement": "α", "setting": "δ-OR D95N (HEK293)", "value": "NAE"}, {"measurement": "Hill Coefficient", "setting": "δ-OR D95A (HEK293)", "value": "NAE"}, {"measurement": "Na+ KB", "setting": "δ-OR D95A (HEK293)", "value": "NAE"}, {"measurement": "Na+ pKB ± SEM", "setting": "δ-OR D95A (HEK293)", "value": "NAE"}, {"measurement": "pα ± SEM", "setting": "δ-OR D95A (HEK293)", "value": "NAE"}, {"measurement": "α", "setting": "δ-OR D95A (HEK293)", "value": "NAE"}, {"measurement": "Hill Coefficient", "setting": "δ-OR N131A (HEK293)", "value": "NAE"}, {"measurement": "Na+ KB", "setting": "δ-OR N131A (HEK293)", "value": "NAE"}, {"measurement": "Na+ pKB ± SEM", "setting": "δ-OR N131A (HEK293)", "value": "NAE"}, {"measurement": "pα ± SEM", "setting": "δ-OR N131A (HEK293)", "value": "NAE"}, {"measurement": "α", "setting": "δ-OR N131A (HEK293)", "value": "NAE"}]}, {"compound": "DADLE", "values": [{"measurement": "G protein agonist efficacy", "setting": "[2]; Asp95Ala, Asn310Ala and Asn314Ala mutants", "value": "low to moderate reduction"}]}]}
